Results on twelve compounds are retold here after ChEMBL document CHEMBL4673394, “Discovery of a Series of Pyrazinone RORγ Antagonists and Identification of the Clinical Candidate BI 730357” (ACS Med Chem Lett, 2021).

A short description of data set [1]: Clearance in Wistar Han rat at 1 mg/kg, iv measured at 5 to 1440 mins relative to hepatic blood flow. To be noted: in vivo, time 5-1440 min. The data set is classed as ADME, organism-based.
Data set [2] in a line: Oral bioavailability in Wistar Han rat at 3 mg/kg measured at 15 to 1440 mins. It is filed as ADME, organism-based. The conditions noted are these: in vivo, time 15-1440 min.
Data set [3] is described as follows: Permeability in human Caco2 cells. The data set is classed as ADME, cell-based. To be noted: Caco-2, read-out: permeability. On the technique in general: Passage across Caco-2 layers is used to estimate intestinal permeability.

For orientation: bioavailability means dose-corrected exposure relative to a reference, in per cent. Regarding `CC[C@@H](C)n1c(=O)c(NCc2ccc(S(=O)(=O)CC)cn2)nc2cnc(-c3c(OC)ncnc3C3CC3)nc21`, the CL in data set [1] amounted to 42%. The same compound had a bioavailability in data set [2] of 20%.
For the compound `CCS(=O)(=O)c1ccc(CNc2nc3cnc(-c4c(OC)ncnc4C4CC4)nc3n([C@@H](C)C3CC3)c2=O)nc1`, the CL in data set [1] stood at 56%.
In turn, `CCS(=O)(=O)c1ccc(CNc2nc3cnc(-c4c(OC)ncnc4C4CC4)nc3n(C(C)C)c2=O)nc1` gave a CL in data set [1] of 32%. For the same compound, the bioavailability in data set [2] is 70%.
In data set [1], `CCS(=O)(=O)c1ccc(CNc2nc3cnc(-c4c(OC)ncnc4C4CC4)nc3n([C@@H](C)C(F)(F)F)c2=O)nc1` displayed a CL of 10%.
Compound `CCS(=O)(=O)c1ccc(CNc2nc3cnc(-c4c(OC)ncnc4C4CC4)nc3n([C@H](C)C3CC3)c2=O)nc1` showed a CL in data set [1] of 44%.
On to `Cc1ncnc(C2CC2)c1-c1ncc2nc(NCc3ccc(S(C)(=O)=O)cn3)c(=O)n([C@@H](C)C3CC3)c2n1`, for which the CL in data set [1] is on record as 16%. The Papp in data set [3] was determined as 110 ×10⁻⁶ cm/s. Also, the bioavailability in data set [2] is 70%.
In turn, `CCS(=O)(=O)c1ccc(CNc2nc3cnc(-c4c(C)ncnc4C4CC4)nc3n([C@@H](C)C3CC3)c2=O)cn1` gave a CL in data set [1] of 19%. For the same compound, in data set [2], the bioavailability was 61%.
Turning to `CCS(=O)(=O)c1cnc(CNc2nc3cnc(-c4c(C)ncnc4C4CC4)nc3n([C@@H](C)C3CC3)c2=O)nc1`, the CL in data set [1] amounted to 29%.
In turn, `CNS(=O)(=O)c1ccc(CNc2nc3cnc(-c4c(C)ncnc4C4CC4)nc3n([C@@H](C)C3CC3)c2=O)nc1` returned a CL in data set [1] of 57%.
In the case of `CCS(=O)(=O)c1ccc(CNc2nc3cnc(-c4c(C)ncnc4C4CC4)nc3n([C@@H](C)C3CC3)c2=O)nc1`, in data set [1], the CL was 23%.
For the compound `CCS(=O)(=O)c1ccc(CNc2nc3cnc(-c4c(C)ncnc4C4CC4)nc3n(C(C)C)c2=O)nc1`, the CL in data set [1] worked out at 16%. Also, the bioavailability in data set [2] is 71%.
The like results for `CCS(=O)(=O)c1ccc(CNC(=O)N2CC(C)(C)c3nc(-c4c(OC)ncnc4C4CC4)ccc32)cc1` were, in that order, 34% and 90%.
